From patent US6034246A, “2-arylbenzazole compounds” (Cancer Research Campaign Technology Limited, priority 1995, dated 2000)

Key:
[1] = system: Renal ACHN; experiment: in vitro inhibitory activity against human renal cell line ACHN (Table 3); assay type: cell-based
Description: (§1) Tables 1 to 4 at the end of the present description show in vitro test results obtained in various sets of experiments for the cytotoxic activity of several of the benzazole compounds concerned, including also for reference results for the compound CJM 126 and comparative results for compound DF129, when tested against a range of tumor cell lines which includes ovarian, lung and certain colon and renal cancer cells from the National Cancer Institute (USA) collection. As usual the results are expressed in terms of IS50 values (concentration or dosage required to reduce cell growth or proliferation by 50%) calculated from dose-effect curves plotted for cultures of the cells in question.
(§2) In carrying out the in vitro studies, the cytotoxicity assays may be carried out by a method corresponding substantially to the following example: […]
(§3) On day 7 the test was terminated by the addition of 100 μl saline containing 0.002% w/v propidium iodide (Sigma), 0.3% drawing ink (Staedtler "Marsmatic 745"--Trade Mark) and 0.5% Triton X-100. The plates were kept at 4° C. overnight before reading on an inverted microscope equipped with an automated scanning stage. Fluorescence intensity was measured in arbitrary units by a photomultiplier. […]

[2] = system: OVCAR-8; experiment: in vitro activity against human ovarian cell line OVCAR-8 (Table 2); assay type: cell-based
Description: as §1, §2, §3

[3] = system: Colon HCC-2998; experiment: in vitro inhibitory activity against human colon cell line HCC-2998 (Table 3); assay type: cell-based
Description: as §1, §2, §3

[4] = system: Renal TK-10; experiment: in vitro inhibitory activity against human renal cell line TK-10 (Table 3); assay type: cell-based
Description: as §1, §2, §3

[5] = system: xenotransplanted breast carcinomas; experiment: in vivo activity in panel of xenotransplanted breast carcinomas; parameters: species or system human (xenotransplanted in nude mice); settings: words; DF203 panel of four, DF129 two carcinomas
Protocol: (§4) In one typical set of experiments, four human breast carcinomas xenotransplanted into female Ncr: nu/nu (Taconic, Germantown, U.S.A.) or male Bom: NMRI-nu/nu mice (Bomholtgaard, Ry, Denmark) were used for the evaluation of antitumor activity. Mice weighing 20-25 g at the start of experiments were held under sterile conditions at 24-26° C., 50% relative humidity and 12 hours light-dark rhythm in laminar flow shelves. The animals received autoclaved food and bedding; the drinking water was filtered and acidified (pH4.0).
(§5) The following breast carcinoma cell lines were used: BO; MCF-7 (NCI, U.S.A.); MT-1 and MT-3. The tumors BO and MCF-7 are ER^+ models: the carcinomas MT-1 and MT-3 are ER^- ones. Tumors were transplanted subcutaneously (s.c.) as pieces (2×2 mm) into the left flank of 5-8 nude mice/experimental group. Drug treatment was initiated when the tumors reached a diameter of 4-5 mm. […] Tumor size was measured twice weekly with a caliper. Median tumor volume/group was related to the first treatment day and expressed as Relative Tumor Volume (RTV). For the estimation of toxicity, body weight was determined twice weekly and the mean percentage body weight change (BCC) was calculated. In one experiment blood was obtained from the retroorbital venous plexus of mice and blood cells were determined with a Coulter counter (Model T41).

[6] = system: Prostatic DU 145; experiment: in vitro inhibitory activity against human prostatic cell line DU 145 (Table 3); assay type: cell-based
Description: as §1, §2, §3

[7] = system: OVCAR-4; experiment: in vitro activity against human ovarian cell line OVCAR-4 (Table 2); assay type: cell-based
Description: as §1, §2, §3

[8] = system: LX4; experiment: in vitro inhibition of growth of human lung cancer cell line LX4 (Table 1); assay type: cell-based
Description: as §1
(§6) In carrying out the in vitro studies, the cytotoxicity assays may be carried out by a method corresponding substantially to the following example:
(§7) Cells were maintained in a continuous logarithmic culture in Dublecco's medium supplemented with 10% fetal calf serum and penicillin (100 IU/ml) and streptomycin ([…]). The cells were mildly trypsinized for passage and for use in assays. On day zero, 100 μl of trypsinized tumor cells (1×10^4 /ml) were plated in the wells of 96-well flat-bottom microtiter plates. The plates were incubated for 2 days at 37° C. and 5% CO2 in air to allow the cells to adhere and resume exponential growth prior to the addition of drugs.
(§8) On day two 50 μl of the highest drug concentration was added to the wells of column 12 and from there serially diluted 3-fold to column 1 by serial transfer of 50 μl using an 8-channel micropipette. The final volume of column 1 was adjusted to 100 μl. No additions were made to the wells of rows A and B, which served as controls. The plates were further incubated for 5 days at 37° C. and 5% CO2 in air. Each compound was tested in duplicate.
(§9) On day 7 the test was terminated by the addition of 100 μl saline containing 0.002% w/v propidium iodide (Sigma), 0.3% drawing ink (Staedtler "Marsmatic 745"--Trade Mark) and 0.5% Triton X-100. The plates were kept at 4° C. overnight before reading on an inverted microscope equipped with an automated scanning stage. Fluorescence intensity was measured in arbitrary units by a photomultiplier. An HP-87 computer controlled the movement of the stage and also collected and processed the data from the multiplier.
(§10) For each compound tested a dose-response curve was obtained and the IC50 value (the drug concentration at 50% inhibition of cell growth) was calculated.

[9] = system: OVCAR-3; experiment: in vitro activity against human ovarian cell line OVCAR-3 (Table 2); assay type: cell-based
Description: as §1, §2, §3

[10] = system: MOR/R; experiment: in vitro inhibition of growth of human lung cancer cell line MOR/R (Table 1); assay type: cell-based; settings: MOR/R (multidrug resistant line)
Description: as §1, §6, §7, §8, §9, §10

[11] = system: Colon SW-620; experiment: in vitro inhibitory activity against human colon cell line SW-620 (Table 3); assay type: cell-based
Description: as §1, §2, §3

[12] = system: L88; experiment: in vitro inhibition of growth of human lung cancer cell line L88 (Table 1); assay type: cell-based
Description: as §1, §6, §7
On day two 50 μl of the highest drug concentration was added to the wells of column 12 and from there serially diluted 3-fold to column 1 by serial transfer of 50 μl using an 8-channel micropipette. The final volume of column 1 was adjusted to 100 μl. No additions were made to the wells of rows A and B, which served as controls. […]
as §3

[13] = system: Prostatic PC3 MAZ; experiment: in vitro inhibitory activity against human prostatic cell line PC3 MAZ (Table 3); assay type: cell-based
Description: as §1, §2, §3

[14] = system: A2780; experiment: in vitro activity against human ovarian cell line A2780 (Table 2); assay type: cell-based; settings: Homo sapiens; A2780 (parental line)
Description: (§11) As usual the results are expressed in terms of IS50 values (concentration or dosage required to reduce cell growth or proliferation by 50%) calculated from dose-effect curves plotted for cultures of the cells in question.
as §6, §7, §8
(§12) The plates were kept at 4° C. overnight before reading on an inverted microscope equipped with an automated scanning stage. Fluorescence intensity was measured in arbitrary units by a photomultiplier. An HP-87 computer controlled the movement of the stage and also collected and processed the data from the multiplier.

[15] = system: OVCAR-5; experiment: in vitro activity against human ovarian cell line OVCAR-5 (Table 2); assay type: cell-based
Description: as §1, §2, §3

[16] = system: IGR-OV1; experiment: in vitro activity against human ovarian cell line IGR-OV1 (Table 2); assay type: cell-based; settings: IGROV-1
Description: as §1, §2, §3

[17] = estimation of toxicity in tumor-bearing nude mice (body weight, blood cells, survival); assay type: in vivo, mouse
Protocol: as §4
The following breast carcinoma cell lines were used: BO; MCF-7 (NCI, U.S.A.); MT-1 and MT-3. The tumors BO and MCF-7 are ER^+ models: the carcinomas MT-1 and MT-3 are ER^- ones. Tumors were transplanted subcutaneously (s.c.) as pieces (2×2 mm) into the left flank of 5-8 nude mice/experimental group. Drug treatment was initiated when the tumors reached a diameter of 4-5 mm. Compounds were solubized with Tween 80 (maximum 10% of final volume) and suspended in saline. Suspensions were preparted freshly for each drug administration and injected in a volume of 0.2 mL/20 g body weight employing a once-weekly schedule (x3). Tumor size was measured twice weekly with a caliper. Median tumor volume/group was related to the first treatment day and expressed as Relative Tumor Volume (RTV). For the estimation of toxicity, body weight was determined twice weekly and the mean percentage body weight change (BCC) was calculated. In one experiment blood was obtained from the retroorbital venous plexus of mice and blood cells were determined with a Coulter counter (Model T41).

[18] = system: MCF-7wt; experiment: in vitro inhibitory activity against human breast tumour cell line MCF-7wt (Table 4); assay type: cell-based; settings: initial seeding density 2.5 × 10^2 cells/well
Description: as §1, §6, §7, §8, §9, §10
*Initial seeding density 2.5 × 10^2 cells/well

[19] = system: SK-OV-3; experiment: in vitro activity against human ovarian cell line SK-OV-3 (Table 2); assay type: cell-based
Description: as §1, §2, §3

[20] = system: CH1-cisR; experiment: in vitro activity against human ovarian cell line CH1-cisR (Table 2); assay type: cell-based; settings: Homo sapiens, CH1cisR
Description: as §11, §6, §7, §8, §12

[21] = system: MT-3; experiment: in vivo antitumor test, human breast carcinoma MT-3 xenotransplanted in nude mice; settings: MT-3, optimum dose 12.5 mg/Kg/inj i.p., qd 7, 14, 21
Protocol: as §4, §5

[22] = MCF-7, optimum dose 200 mg/Kg/inj i.p., qd 12, 19, 26
[23] = MCF-7, optimum dose 12.5 mg/Kg/inj i.p., qd 12, 19, 26

Compound | IC50 [1] | IC50 [2] | IC50 [3] | IC50 [4] | in vivo activity in xenotransplanted breast carcinomas [5] | IC50 [6] | IC50 [7] | IC50 [8] | IC50 [10] | IC50 [11] | IC50 [12] | IC50 [13] | IC50 [14] | IC50 [16] | IC50 [18] | IC50 [19] | IC50 [20] | other results
Nc1ccc(-c2nc3ccccc3s2)cc1I [DF129, 2-(4'-amino-3'-iodophenyl)benzothiazole] | > 100 µM | > 100 µM | < 1 µM | < 1 µM | only borderline activity in one of the models | 52 µM | 0.2 µM | > 10 µM | 0.1 µM | ~100 µM | 0.05 µM | 54 µM | > 100 µM | < 0.1 µM | < 0.001 µM | > 100 µM | 83 µM | IC50 [9]: 0.6 µM; IC50 [15]: 0.3 µM; BWC (body weight change) ([17]; BO, optimum dose 200 mg/Kg/inj i.p., qd 27, 34, 41 (Table 6)): -14%; BWC (body weight change) [17, 22]: -14%; Platelets (% of controls) [17, 22]: 106 % of controls; WBC, white blood cells (% of controls) [17, 22]: 112 % of controls
Cc1cc(-c2nc3ccccc3s2)ccc1N [DF203, 2-(4'-amino-3'-methylphenyl)benzothiazole] | ~100 µM | > 100 µM | < 1 µM | < 1 µM | consistent tumor growth inhibition in all four tumors | > 100 µM | < 1 µM | > 10 µM | 0.07 µM | > 100 µM | 6 µM | > 100 µM | > 100 µM | < 0.1 µM | < 0.001 µM | > 100 µM | 42 µM | evaluation [21]: ++ (T/C = 21-35%); RTV, relative tumor volume (T/C %) ([21]; marked * significant versus control): 22%; BWC (body weight change) ([17]; BO, optimum dose 25 mg/Kg/inj i.p., qd 27, 34, 41): -9%; BWC (body weight change) [17, 23]: -12%; Platelets (% of controls) [17, 23]: 108 % of controls; WBC, white blood cells (% of controls) [17, 23]: 100 % of controls; overall change in white blood cell or platelet counts ([17]; MCF-7 test, words): no overall change; BWC (body weight change) ([17]; MT-1, optimum dose 6.25 mg/Kg/inj i.p., qd 7, 14, 21): -3%; BWC (body weight change) ([17]; MT-3, optimum dose 12.5 mg/Kg/inj i.p., qd 7, 14, 21): -3%; bone marrow toxicity ([17]; mouse, in vivo): not dose-limiting; survivors ([17]; mouse, in vivo, 25 mg/kg): only one survivor; toxicity ([17]; mouse, in vivo, 25 mg/kg): toxic
